Source: publication PMC9065260 (Frontiers in Pharmacology, 2022)
Read-outs that look alike come from different tables or passages of the source. Blank lines part the entries; values can stand above or below the compound they belong to.

Tests used:
[1] = system: KYSE70 cells; assay: MTT assay for cell proliferation and cytotoxicity; type: cell-based; conditions: Homo sapiens, KYSE-70, 48 h, read-out: IC50 KYSE70
Method: (§3) The compounds were dissolved in DMSO to make a 50 mM stock solution and were diluted to the concentration of working solutions with the complete growth medium before administration.
(§4) Cells were seeded in 96-well plates with densities of 2,200–2,500 cells/well in 100 μL. One day after seeding, the concentration of the test compounds between 0 and 50 μM, 0.1% DMSO was added to cells as control. […] After 48 h, MTT was added and incubated in the plate for 1–4 h in the incubator.

[2] = system: KYSE410 cells; assay: MTT assay for cell proliferation and cytotoxicity; type: cell-based; conditions: Homo sapiens, KYSE-410, 48 h, read-out: IC50 KYSE410
Method: as §3, §4

[3] = system: KYSE450 cells; assay: MTT assay for cell proliferation and cytotoxicity; type: cell-based; conditions: Homo sapiens, KYSE-450, 48 h, read-out: IC50 KYSE450
Method: as §3, §4

[4] = system: H1650 cells; assay: MTT assay for cell proliferation and cytotoxicity; type: cell-based; conditions: Homo sapiens, NCI-H1650, 48 h, read-out: IC50 H1650
Method: as §3, §4

[5] = system: human esophageal epithelial cell SHEE; assay: MTT assay, toxicity against normal cells; type: cell-based; conditions: Homo sapiens, read-out: IC50 SHEE
Method: Cells were seeded in 96-well plates with densities of 2,200–2,500 cells/well in 100 μL. One day after seeding, the concentration of the test compounds between 0 and 50 μM, 0.1% DMSO was added to cells as control. Approximately 2200-2500 transfected cells in 100 μL were incubated in quintuplicate in 96-well plates. After 48 h, MTT was added and incubated in the plate for 1–4 h in the incubator.

[6] = system: KYSE70TR cells; assay: MTT assay, drug-resistant cell line; type: cell-based, human
Method: as §3, §4

[7] = system: KYSE410TR cells; assay: MTT assay, drug-resistant cell line; type: cell-based, human
Method: as §3, §4

[8] = system: KYSE450TR cells; assay: MTT assay, drug-resistant cell line; type: cell-based, human
Method: as §3, §4

[9] = system: H1650TR cells; assay: MTT assay, drug-resistant cell line; type: cell-based, human
Method: as §3, §4

[10] = system: HCC827GR cells; assay: MTT assay, drug-resistant cell line; type: cell-based, human
Method: as §3, §4

[11] = system: KYSE450 cells; assay: Flow cytometry detection for cell apoptosis (Annexin V/PI); type: cell-based, human; conditions: 48 h
Method: (§1) Cell apoptosis analysis was carried out by flow cytometry using the Annexin V/PI apoptosis methods. […] The cells were harvested and incubated with 250 μL of 1 × Annexin V binding buffer containing 5 μL of PI and 5 μL of FITC Annexin V (final concentration 1.8 μg/ml, Biolegend cat: 640945) for 15 min at room temperature in the dark. Then 200 µL of 1 × binding buffer was added for flow cytometry analysis (BD FACSCalibur™ Flow Cytometer).

[12] = system: KYSE450TR cells; assay: as above; type: cell-based, human; conditions: 48 h
Method: as §1

[13] = system: H1650; assay: Resistance index determination of drug resistance cell lines; type: cell-based; conditions: Homo sapiens
Method: (§2) […]. Three types of esophageal cancer cell lines KYSE70TR, KYSE410TR, and KYSE450TR which were resistant to paclitaxel, and NSCLC cell lines HCC827GR and H1650TR, which were resistant to gefitinib and paclitaxel, respectively, were also tested for the comparison purpose.

[14] = system: KYSE 410; assay: as above; type: cell-based; conditions: Homo sapiens
Method: as §2

[15] = system: KYSE 450; assay: as above; type: cell-based; conditions: Homo sapiens
Method: as §2

[16] = system: KYSE 70; assay: as above; type: cell-based; conditions: Homo sapiens
Method: as §2

[17] = system: H1650TR; assay: as above; type: cell-based, human; conditions: for IC50: Homo sapiens, H1650TR
Method: as §2

[18] = system: KYSE 410TR; assay: as above; type: cell-based, human; conditions: for IC50: Homo sapiens, KYSE 410TR
Method: as §2

[19] = system: KYSE 450TR; assay: as above; type: cell-based, human; conditions: for IC50: Homo sapiens, KYSE 450TR
Method: as §2

[20] = system: KYSE 70TR; assay: as above; type: cell-based, human; conditions: for IC50: Homo sapiens, KYSE 70TR
Method: as §2

IC50 ([9]; Homo sapiens, read-out: IC50 H1650TR, MTT, paclitaxel-resistant lung cancer cell line): > 10 µM
IC50 ([9]; read-out: IC50 H1650TR, MTT, paclitaxel-resistant lung cancer cell line): > 20 µM
IC50 ([10]; Homo sapiens, read-out: IC50 HCC827GR, MTT, gefitinib-resistant lung cancer cell line): > 10 µM
IC50 ([10]; read-out: IC50 HCC827GR, MTT, gefitinib-resistant lung cancer cell line): > 20 µM
Compound: C#Cc1cccc(Nc2ncnc3cc(OCCOC)c(OCCOC)cc23)c1 [Erlotinib]
IC50 [1]: > 50 µM
IC50 [2]: 5 ± 0.46 µM
IC50 [3]: 7.6 ± 0.51 µM
IC50 [4]: 14 ± 1.19 µM
IC50 [5]: 21 ± 2.11 µM
IC50 ([6]; Homo sapiens, read-out: IC50 KYSE70TR, MTT, paclitaxel-resistant esophageal cancer cell line): > 10 µM
IC50 ([6]; read-out: IC50 KYSE70TR, MTT, paclitaxel-resistant esophageal cancer cell line): > 20 µM
IC50 ([7]; Homo sapiens, read-out: IC50 KYSE410TR, MTT, paclitaxel-resistant esophageal cancer cell line): > 10 µM
IC50 ([7]; read-out: IC50 KYSE410TR, MTT, paclitaxel-resistant esophageal cancer cell line): > 20 µM
IC50 ([8]; Homo sapiens, read-out: IC50 KYSE450TR, MTT, paclitaxel-resistant esophageal cancer cell line): > 10 µM
IC50 ([8]; read-out: IC50 KYSE450TR, MTT, paclitaxel-resistant esophageal cancer cell line): > 20 µM
proportion of apoptotic cells ([11]; KYSE450, 5 μM): 7.04%
proportion of apoptotic cells ([11]; KYSE450, 10 μM): 8.94%
proportion of apoptotic cells ([12]; 5 μM): 10.16%
proportion of apoptotic cells ([12]; 10 μM): 16.68%

IC50 ([13]; NCI-H1650, 24 h, read-out: 24 h IC50): 0.87 ± 0.0435 µM
IC50 ([13]; NCI-H1650, 48 h, read-out: 48 h IC50): 0.0833 ± 0.00333 µM
IC50 ([14]; KYSE 410, 24 h, read-out: 24 h IC50): 1.28 ± 0.0693 µM
IC50 ([14]; KYSE 410, 48 h, read-out: 48 h IC50): 0.052 ± 0.00345 µM
IC50 ([15]; KYSE 450, 24 h, read-out: 24 h IC50): 0.05503 ± 0.00033 µM
IC50 ([15]; KYSE 450, 48 h, read-out: 48 h IC50): 0.00782 ± 0.00084 µM
IC50 ([16]; KYSE 70, 24 h, read-out: 24 h IC50): 0.64 ± 0.043 µM
IC50 ([16]; KYSE 70, 48 h, read-out: 48 h IC50): 0.0202 µM
IC50 ([17]; 24 h, read-out: 24 h IC50): 4.13 ± 0.208 µM
IC50 ([17]; 48 h, read-out: 48 h IC50): 0.645 ± 0.045 µM
IC50 ([18]; 24 h, read-out: 24 h IC50): 6.4 ± 0.43 µM
IC50 ([18]; 48 h, read-out: 48 h IC50): 1.71 ± 0.0864 µM
IC50 ([19]; 24 h, read-out: 24 h IC50): 0.266 ± 0.0661 µM
IC50 ([19]; 48 h, read-out: 48 h IC50): 0.12 ± 0.0321 µM
IC50 ([20]; 24 h, read-out: 24 h IC50): 4.92 ± 0.274 µM
IC50 ([20]; 48 h, read-out: 48 h IC50): 1.12 ± 0.0352 µM
Compound: CC(=O)O[C@H]1C(=O)[C@@]2(C)[C@H]([C@H](OC(=O)c3ccccc3)[C@]3(O)C[C@H](OC(=O)[C@H](O)[C@@H](NC(=O)c4ccccc4)c4ccccc4)C(C)=C1C3(C)C)[C@]1(OC(C)=O)CO[C@@H]1C[C@@H]2O [paclitaxel]
Resistance index ([17]; H1650TR vs H1650, 24 h IC50): 4.74
Resistance index ([17]; H1650TR vs H1650, 48 h IC50): 7.74
Resistance index ([18]; KYSE 410TR vs KYSE 410, 24 h IC50): 5
Resistance index ([18]; KYSE 410TR vs KYSE 410, 48 h IC50): 32.88
Resistance index ([19]; KYSE 450TR vs KYSE 450, 24 h IC50): 4.84
Resistance index ([19]; KYSE 450TR vs KYSE 450, 48 h IC50): 15.38
Resistance index ([20]; KYSE 70TR vs KYSE 70, 24 h IC50): 7.69
Resistance index ([20]; KYSE 70TR vs KYSE 70, 48 h IC50): 56
